In patent US10206394B2, “Herbicidal compounds” (Syngenta Participations AG, priority 2014, dated 2019) one finds pest or weed control data, which are given here for eight molecules.

Like-named read-outs stand apart in the source and are kept apart here.

Common to all, as to experiment: Glasshouse assay for herbicidal activity (pre- and post-emergence), percentage phytotoxicity
Holding throughout (assay type): in vivo

For one assay, the system named is Lolium perenne (LOLPE). The conditions noted are these: Lolium perenne. In outline:
(§1)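 Visually rated damage, 0–100%. PRE spray 1 d after sowing, scored 20 DAA; POST spray ~12 d, scored 15 DAA. Glasshouse at 65% humidity, 16 h day.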

Another assay relates to Avena fatua (AVEFA). The following applies: Avena fatua. In outline:
as §1

Assay [1] has as its system Alopecurus myosuroides (ALOMY). The following applies: Alopecurus myosuroides. In outline: as §1
Assay [2] relates to Echinochloa crus-galli (ECHCG). The following applies: Echinochloa crus-galli. In outline:
as §1

[3] abbreviates: post-emergence, 360 h, Rate 250 g/ha, post-emergence, assessed visually 15 DAA, 100%=total damage, 0%=no damage, read-out: Post-emergence herbicidal activity (percentage phytotoxicity) LOLPE POST.
[4] abbreviates: pre-emergence, 480 h, Rate 250 g/ha, pre-emergence, assessed visually 20 DAA, 100%=total damage, 0%=no damage, read-out: Pre-emergence herbicidal activity (percentage phytotoxicity) LOLPE PRE.
[5] abbreviates: post-emergence, 360 h, Rate 250 g/ha, post-emergence, assessed visually 15 DAA, 100%=total damage, 0%=no damage, read-out: Post-emergence herbicidal activity (percentage phytotoxicity) AVEFA POST.
Setting [6] is: pre-emergence, 480 h, Rate 250 g/ha, pre-emergence, assessed visually 20 DAA, 100%=total damage, 0%=no damage, read-out: Pre-emergence herbicidal activity (percentage phytotoxicity) AVEFA PRE.
Where [7] appears, read: post-emergence, 360 h, Rate 250 g/ha, post-emergence, assessed visually 15 DAA, 100%=total damage, 0%=no damage, read-out: Post-emergence herbicidal activity (percentage phytotoxicity) ALOMY POST.
Where [8] appears, read: pre-emergence, 480 h, Rate 250 g/ha, pre-emergence, assessed visually 20 DAA, 100%=total damage, 0%=no damage, read-out: Pre-emergence herbicidal activity (percentage phytotoxicity) ALOMY PRE.
The mark [9] stands for this setting: post-emergence, 360 h, Rate 250 g/ha, post-emergence, assessed visually 15 DAA, 100%=total damage, 0%=no damage, read-out: Post-emergence herbicidal activity (percentage phytotoxicity) ECHCG POST.
Where [10] appears, read: pre-emergence, 480 h, Rate 250 g/ha, pre-emergence, assessed visually 20 DAA, 100%=total damage, 0%=no damage, read-out: Pre-emergence herbicidal activity (percentage phytotoxicity) ECHCG PRE.
Where [11] appears, read: post-emergence, 360 h, post-emergence, 250 g/ha, 15 DAA, visual score (100%=total damage; 0%=no damage), read-out: LOLPE POST herbicidal activity (percentage phytotoxicity).
Setting [12] is: pre-emergence, 480 h, pre-emergence, 250 g/ha, 20 DAA, visual score (100%=total damage; 0%=no damage), read-out: LOLPE PRE herbicidal activity (percentage phytotoxicity).
Where [13] appears, read: post-emergence, 360 h, post-emergence, 250 g/ha, 15 DAA, visual score (100%=total damage; 0%=no damage), read-out: AVEFA POST herbicidal activity (percentage phytotoxicity).
Setting [14] is: pre-emergence, 480 h, pre-emergence, 250 g/ha, 20 DAA, visual score (100%=total damage; 0%=no damage), read-out: AVEFA PRE herbicidal activity (percentage phytotoxicity).
The mark [15] stands for this setting: post-emergence, 360 h, post-emergence, 250 g/ha, 15 DAA, visual score (100%=total damage; 0%=no damage), read-out: ALOMY POST herbicidal activity (percentage phytotoxicity).
Where [16] appears, read: pre-emergence, 480 h, pre-emergence, 250 g/ha, 20 DAA, visual score (100%=total damage; 0%=no damage), read-out: ALOMY PRE herbicidal activity (percentage phytotoxicity).
Where [17] appears, read: post-emergence, 360 h, post-emergence, 250 g/ha, 15 DAA, visual score (100%=total damage; 0%=no damage), read-out: ECHCG POST herbicidal activity (percentage phytotoxicity).
The mark [18] stands for this setting: pre-emergence, 480 h, pre-emergence, 250 g/ha, 20 DAA, visual score (100%=total damage; 0%=no damage), read-out: ECHCG PRE herbicidal activity (percentage phytotoxicity).
Setting [19] is: post-emergence, 360 h, POST-emergence, rate 250 g/ha, visual score 15 DAA (100%=total damage, 0%=no damage), read-out: Post-emergence herbicidal activity (percentage phytotoxicity) LOLPE POST.
Setting [20] is: pre-emergence, 480 h, PRE-emergence, rate 250 g/ha, visual score 20 DAA (100%=total damage, 0%=no damage), read-out: Pre-emergence herbicidal activity (percentage phytotoxicity) LOLPE PRE.
[21] abbreviates: post-emergence, 360 h, POST-emergence, rate 250 g/ha, visual score 15 DAA (100%=total damage, 0%=no damage), read-out: Post-emergence herbicidal activity (percentage phytotoxicity) AVEFA POST.
Setting [22] is: pre-emergence, 480 h, PRE-emergence, rate 250 g/ha, visual score 20 DAA (100%=total damage, 0%=no damage), read-out: Pre-emergence herbicidal activity (percentage phytotoxicity) AVEFA PRE.
Where [23] appears, read: post-emergence, 360 h, POST-emergence, rate 250 g/ha, visual score 15 DAA (100%=total damage, 0%=no damage), read-out: Post-emergence herbicidal activity (percentage phytotoxicity) ALOMY POST.
[24] abbreviates: pre-emergence, 480 h, PRE-emergence, rate 250 g/ha, visual score 20 DAA (100%=total damage, 0%=no damage), read-out: Pre-emergence herbicidal activity (percentage phytotoxicity) ALOMY PRE.
Where [25] appears, read: post-emergence, 360 h, POST-emergence, rate 250 g/ha, visual score 15 DAA (100%=total damage, 0%=no damage), read-out: Post-emergence herbicidal activity (percentage phytotoxicity) ECHCG POST.
The mark [26] stands for this setting: pre-emergence, 480 h, PRE-emergence, rate 250 g/ha, visual score 20 DAA (100%=total damage, 0%=no damage), read-out: Pre-emergence herbicidal activity (percentage phytotoxicity) ECHCG PRE.

Take `CC#Cc1cc(C)c(C2C(=O)CC(CC(=O)N(C)CCC)C2=O)c(C)c1` (stereo not shown) [Compound A61]: the pest or weed control at 250 g/ha with Lolium perenne (LOLPE) (setting [3]) came out at 90%; in the assay with Lolium perenne (LOLPE) (setting [4]), 100%; in the assay on Avena fatua (AVEFA) (setting [5]), 100%; in the assay with Avena fatua (AVEFA) (setting [6]), 90%; in assay [1] (setting [7]) it was 100%; in assay [1] (setting [8]), 100%. The pest or weed control at 250 g/ha in assay [2] (setting [9]) and in assay [2] (setting [10]) was 100% in each case.

In the case of `Cc1cc(C)c(C2C(=O)CC(CC(=O)N3CC(C)CC(C)C3)C2=O)c(C)c1` (stereo not shown) [Compound A173], the pest or weed control at 250 g/ha in the assay with Lolium perenne (LOLPE) (setting [11]) turned out to be 60%; with Lolium perenne (LOLPE) (setting [12]), 80%; with Avena fatua (AVEFA) (setting [13]) it was 30%; with Avena fatua (AVEFA) (setting [14]), 10%; in assay [1] (setting [15]) it was 20%; in assay [1] (setting [16]) it was 50%. Further, the pest or weed control at 250 g/ha in assay [2] (setting [17]) was 30%; in assay [2] (setting [18]), 10%.

Turning to `C/C=C/CNC(=O)CC1CC(=O)C(c2c(C)cc(-c3ncc(F)cn3)cc2C)C1=O` (stereo not shown) [Compound B303], the pest or weed control at 250 g/ha in the assay with Lolium perenne (LOLPE) (setting [19]) was found to be 100%; in the assay with Lolium perenne (LOLPE) (setting [20]), 80%; in the assay on Avena fatua (AVEFA) (setting [21]), 100%; in the assay on Avena fatua (AVEFA) (setting [22]), 80%; in assay [1] (setting [23]), 100%; in assay [1] (setting [24]), 90%. The pest or weed control at 250 g/ha in assay [2] (setting [25]) and in assay [2] (setting [26]) was 100% in each case.

For the molecule `Cc1cccc(CNC(=O)CC2CC(=O)C(c3c(C)cc(-c4ncc(Cl)cc4F)cc3C)C2=O)c1` (stereo not shown) [Compound A119], the pest or weed control at 250 g/ha in the assay on Lolium perenne (LOLPE) (setting [3]) worked out at 90%; in the assay with Lolium perenne (LOLPE) (setting [4]) it was 70%; with Avena fatua (AVEFA) (setting [5]) it was 90%; in the assay with Avena fatua (AVEFA) (setting [6]), 60%; in assay [1] (setting [7]) it was 60%; in assay [1] (setting [8]) it was 40%. Besides, the pest or weed control at 250 g/ha in assay [2] (setting [9]) and in assay [2] (setting [10]) was 100% in each case.

`Cc1cc(C)c(C2C(=O)CC(CC(=O)NCC3CCC3)C2=O)c(C)c1` (stereo not shown) [Compound A184]: the pest or weed control at 250 g/ha with Lolium perenne (LOLPE) (setting [11]) amounted to 80%; in the assay on Lolium perenne (LOLPE) (setting [12]), 90%; in the assay on Avena fatua (AVEFA) (setting [13]) it was 70%; in the assay with Avena fatua (AVEFA) (setting [14]), 0%; in assay [1] (setting [15]), 90%; in assay [1] (setting [16]), 90%. Also, the pest or weed control at 250 g/ha in assay [2] (setting [17]) and in assay [2] (setting [18]) was 90% in each case.

Turning to `C/C=C/c1cc(C)c(C2C(=O)CC(CC(=O)N3CCOCC3)C2=O)c(CC)c1` (stereo not shown) [Compound B137], the pest or weed control at 250 g/ha in the assay on Lolium perenne (LOLPE) (post-emergence, 360 h, 250 g/ha, post-emergence, 15 DAA, visual assessment (100%=total damage, 0%=no damage), read-out: Post-emergence herbicidal activity (percentage phytotoxicity) LOLPE POST) amounted to 100%; in the assay with Lolium perenne (LOLPE) (pre-emergence, 480 h, 250 g/ha, pre-emergence, 20 DAA, visual assessment (100%=total damage, 0%=no damage), read-out: Pre-emergence herbicidal activity (percentage phytotoxicity) LOLPE PRE), 50%; with Avena fatua (AVEFA) (post-emergence, 360 h, 250 g/ha, post-emergence, 15 DAA, visual assessment (100%=total damage, 0%=no damage), read-out: Post-emergence herbicidal activity (percentage phytotoxicity) AVEFA POST), 100%; in the assay on Avena fatua (AVEFA) (pre-emergence, 480 h, 250 g/ha, pre-emergence, 20 DAA, visual assessment (100%=total damage, 0%=no damage), read-out: Pre-emergence herbicidal activity (percentage phytotoxicity) AVEFA PRE), 50%; in assay [1] (post-emergence, 360 h, 250 g/ha, post-emergence, 15 DAA, visual assessment (100%=total damage, 0%=no damage), read-out: Post-emergence herbicidal activity (percentage phytotoxicity) ALOMY POST) it was 100%; in assay [1] (pre-emergence, 480 h, 250 g/ha, pre-emergence, 20 DAA, visual assessment (100%=total damage, 0%=no damage), read-out: Pre-emergence herbicidal activity (percentage phytotoxicity) ALOMY PRE) it was 20%. In addition, the pest or weed control at 250 g/ha in assay [2] (post-emergence, 360 h, 250 g/ha, post-emergence, 15 DAA, visual assessment (100%=total damage, 0%=no damage), read-out: Post-emergence herbicidal activity (percentage phytotoxicity) ECHCG POST) came out at 90%; in assay [2] (pre-emergence, 480 h, 250 g/ha, pre-emergence, 20 DAA, visual assessment (100%=total damage, 0%=no damage), read-out: Pre-emergence herbicidal activity (percentage phytotoxicity) ECHCG PRE), 60%.

`C=CCNC(=O)CC1CC(=O)C(c2c(C)cc(OCC(F)(F)F)cc2C)C1=O` (stereo not shown) [Compound B209]: the pest or weed control at 250 g/ha in the assay with Lolium perenne (LOLPE) (setting [19]) stood at 80%; in the assay with Lolium perenne (LOLPE) (setting [20]), 90%; in the assay with Avena fatua (AVEFA) (setting [21]), 80%; in the assay on Avena fatua (AVEFA) (setting [22]), 80%; in assay [1] (setting [23]), 90%; in assay [1] (setting [24]) it was 100%. Further, the pest or weed control at 250 g/ha in assay [2] (setting [25]) and in assay [2] (setting [26]) was 100% each time.

For the molecule `Cc1cc(-n2cc(Cl)cn2)cc(C)c1C1C(=O)CC(CC(=O)NC/C=C/Cl)C1=O` (stereo not shown) [Compound B308], the pest or weed control at 250 g/ha in the assay with Lolium perenne (LOLPE) (setting [19]) came out at 60%; with Lolium perenne (LOLPE) (setting [20]), 80%; in the assay on Avena fatua (AVEFA) (setting [21]), 100%; with Avena fatua (AVEFA) (setting [22]), 80%; in assay [1] (setting [23]), 90%; in assay [1] (setting [24]), 90%. Also, the pest or weed control at 250 g/ha was found to be 100% in assay [2] (setting [25]) and 80% in assay [2] (setting [26]).
